Assay results as given in patent publication US9974305B2, “Fungicidal or bactericidal composition, and method for controlling diseases” (NISSAN CHEMICAL INDUSTRIES, LTD., priority 2014, dated 2018).
Read-outs that look alike come from different tables or passages of the source.

What was measured:
Type in all cases: in vivo
[1] = system: wheat glume blotch (Leptosphaeria nodorum); assay: Efficacy test on wheat glume blotch, seed treatment (Test Example 9); conditions: single compound
Procedure: An agent comprising the following compound listed in Table 2 (active ingredient A) and the compound listed in Table 11 (H35: active ingredient B) as active ingredients, was prepared in accordance with the above Formulation Example. This agent was diluted with water to a predetermined concentration to obtain a test solution. A predetermined amount of the test solution was put in a glass bottle of 5 ml, and 0.5 g (approximately 15 grains) of wheat seeds (variety: Haruyutaka) were added, stirred and air-dried. In each pot with a diameter of 7 cm having soil put therein, 3 grains were seeded and grown for 14 days. To seedlings of the wheat (variety: Haruyutaka) grown to a 1-leaf stage, a spore suspension (100,000 cfu/ml) of wheat glume blotch (Leptosphaeria nodorum) was spray-inoculated, and the pot was placed in a moist chamber set in temperature of 20° C. and humidity more than 95% RH for 48 hours. After placing the pot for 7 days in a glass greenhouse, the ratio of the formed lesion area occupying the inoculated leaves was measured, and the preventive value was calculated in accordance with the following formula. Preventive value=[1−(treated plot lesion area ratio/untreated plot lesion area ratio)]×100
(§1) Further, from the preventive value at each agent concentration, synergy was calculated by using the Colby method (Colby S. R. 1976, Weeds 15, 20-22).

[2] = system: cucumber gray mold fungus (Botrytis cinerea); assay: Preventive test against gray mold on cucumber cotyledon leaves, spray treatment, preventive value and Colby expected value (Test Examples 1-4); conditions: single compound; for pest or weed control at 3 ppm / pest or weed control at 1 ppm: Botrytis cinerea, 72 h; for pest or weed control at 3 ppm: read-out: Preventive value
Method in brief: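 Cucumber (Sagami-hanjiro) cotyledons sprayed with water-diluted formulations of ingredient A, B or mixtures, air-dried, detached, and drop-inoculated with Botrytis cinerea conidia mixed 1:1 with PDA. After 3 days at 20 °C, lesion area gave preventive value versus untreated; Colby expected value E=X+Y−XY/100 computed for mixtures.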

[3] = system: cucumber downy mildew (Pseudoperenospora cubensis); assay: Efficacy test on cucumber downy mildew, spray treatment and prevention test (Test Example 7); conditions: single compound 250 ppm; lesion area ratio
Procedure: An agent comprising the following compound listed in Table 2 (active ingredient A) and the compound listed in Table 6 (C40: active ingredient B) as active ingredients, was prepared in accordance with the above Formulation Example. This agent was diluted with water to a predetermined concentration to obtain a test solution. Then, to seedlings of cucumber (variety: Sagami-hanjiro) at 1.5-leaf stage grown in a pot with a diameter of 7 cm, the test solution was applied by a spray gun in an amount of 10 ml per pot, for treatment. One day after the treatment, a spore suspension (2×100,000 cfu/ml) of cucumber downy mildew (Pseudoperenospora cubensis), was spray-inoculated, and the pot was placed in a moist chamber set in temperature of 20° C. and humidity more than 95% RH for 24 hours. After placing the pot in a glass greenhouse for 6 days, the ratio of the formed lesion area occupying the inoculated leaves was measured, and the preventive value was calculated in accordance with the following formula. Preventive value=[1−(treated plot lesion area ratio/untreated plot lesion area ratio)]×100
Further, from the preventive value for each agent concentration, synergy was calculated by using the Colby method (Colby S. R. 1976, Weeds 15, 20-22).

[4] = system: wheat powdery mildew (Blumeria graminis); assay: Efficacy test on wheat powdery mildew, seed treatment (Test Example 10); conditions: wheat (Norin 61)
Procedure: An agent comprising the following compound listed in Table 2 (active ingredient A) and the compound listed in Table 11 (H35: active ingredient B) as active ingredients, was prepared in accordance with the above Formulation Example. This agent was diluted with water to a predetermined concentration to obtain a test solution. A predetermined amount of test solution was put in a glass bottle of 5 ml, and 0.5 g (approximately 15 grains) of wheat seeds (variety: Norin 61) were added, stirred and air-dried. In each pot with a diameter of 7 cm and having soil put therein, 3 grains were seeded and grown for 14 days. To the wheat seedlings grown to the 1-leaf stage, a spore suspension (100,000 cfu/ml) of wheat powdery mildew (Blumeria graminis) was spray-inoculated. After placing the pot in a glass greenhouse for 10 days, the ratio of the formed lesion area occupying the inoculated leaves was measured, and the preventive value was calculated in accordance with the following formula. Preventive value=[1−(treated plot lesion area ratio/untreated plot lesion area ratio)]×100
as §1

[5] = processing amount 5 mg/1 g seed
[6] = processing amount 10 mg/1 g seed

Row | SMILES | Preventive value [1, 5] | Preventive value [1, 6] | pest or weed control at 3 ppm ([2]; Test Example 1, 3 ppm spray) | pest or weed control at 3 ppm ([2]; Test Example 3, 3 ppm spray) | pest or weed control at 3 ppm ([2]; Test Example 4, 3 ppm spray) | Preventive value [3] | Preventive value [4, 5] | Preventive value [4, 6] | pest or weed control at 1 ppm ([2]; Test Example 2, 1 ppm spray) | pest or weed control at 1 ppm ([2]; Test Example 3, 1 ppm spray) | pest or weed control at 1 ppm ([2]; Test Example 4, 1 ppm spray) | Preventive value ([2]; Test Example 1, 3 ppm spray) | Preventive value ([2]; Test Example 3, 3 ppm spray) | Preventive value ([2]; Test Example 4, 3 ppm spray) | Preventive value ([2]; Test Example 1, 1 ppm spray, cucumber cotyledon, 3 days at 20° C.) | Preventive value ([2]; Test Example 3, 1 ppm spray) | Preventive value ([2]; Test Example 4, 1 ppm spray)
1 | CC#Cc1cnc(/C(CNC(=O)c2cn(C)nc2C(F)F)=N\OC(C)C)c(Cl)c1 [Compound No. 20, (Z)—N-[2-[3-chloro-5-(1-propynyl)pyridin-2-yl]-2-(isopropoxyimino)ethyl]-3-difluoromethyl-1-methyl-1H-pyrazole-4-carboxamide] | 90 | 99 | 63% | 65% | 65% | 5 | 100 | 100 |  |  |  |  |  |  |  |  | 
2 | CC(C)O/N=C(/CNC(=O)c1cn(C)nc1C(F)F)c1ncc(C#CC2CC2)cc1Cl [Compound No. 25, (Z)—N-[2-[3-chloro-5-(cyclopropylethynyl)pyridin-2-yl]-2-(isopropoxyimino)ethyl]-3-difluoromethyl-1-methyl-1H-pyrazole-4-carboxamide] | 83 | 95 |  |  |  | 5 | 100 | 100 | 63% | 75% | 75% |  |  |  |  |  | 
3 | CC(C)O/N=C(/CNC(=O)c1ccccc1C(F)(F)F)c1ncc(Cl)cc1Cl [Compound No. 4] | 70 | 75 |  |  |  | 0 | 97 | 99 |  |  |  | 75 | 70 | 60 |  |  | 
4 | CC(C)ON=C(CNC(=O)c1ccccc1C(F)(F)F)c1ncc(C(F)(F)F)cc1Cl [compound 14] | 41 | 82 |  |  |  | 0 | 97 | 100 |  |  |  | 75 | 75 | 65 |  |  | 
5 | CON=C(CNC(=O)c1cn(C)nc1C(F)F)c1ncc(C#CC(C)(C)C)cc1Cl [compound 28] | 77 | 88 |  |  |  | 5 | 100 | 100 |  |  |  | 75 | 77 | 75 |  |  | 
6 | COc1c(Cl)cnc(C(CNC(=O)c2ccccc2C(F)(F)F)=NOC(C)C)c1Cl [Compound No. 9] | 75 | 77 |  |  |  | 0 | 100 | 100 |  |  |  |  |  |  | 75 | 70 | 72
